Data on 14 compounds can be found in patent publication US20250127801A1, “BRIDGED TRICYCLIC CARBAMOYLPYRIDONE COMPOUNDS AND USES THEREOF” (priority 2023, published 2025).

Series [1] is described as follows: in vitro. To be noted: human; for CC50 at 5 days: uninfected MT-4 cells.
Series [2] deals with HIV-1 (IIIB). Briefly: microbe, parasite or virus in culture. The format is cell-based.
A short description of series [3]: physchem. To be noted: 23 °C, thermodynamic from solid; for solubility thermodynamic: fassif; for solubility thermodynamic at 24 h: FaSSIF.
[4] abbreviates: Human immunodeficiency virus 1, IIIB, MT4, 120 h, read-out: MT4 EC50 (nM).
The mark [5] stands for this setting: Human immunodeficiency virus 1, MT4, 120 h, HIV-1 (IIIB) replication in MT-4 cells, 5 days incubation, Cell Titer Glo, read-out: MT4 EC50.

SMILES strings stand for the structures. Converted amounts (≈) assume the structure as drawn. Like-named read-outs stand apart in the source and are kept apart here. Some results are limits rather than exact numbers.

As usually defined, the EC50 is the concentration needed to bring the measured effect to its halfway point. As usually defined, the thermodynamic solubility is the concentration in solution at equilibrium with solid. Regarding `CC1=NO[C@@]2(CC[C@H](C)N3C[C@H]2n2cc(C(=O)NCc4ccc(F)cc4F)c(=O)c(OCOC(=O)CC(C)(C)c4c(CC(=O)N5CCOCC5)cc(C)cc4OP(=O)(O)O)c2C3=O)C1` [Compound 58, (((3′S,5S,7′R)-10′-((2,4-difluorobenzyl)carbamoyl)-3,3′-dimethyl-1′,11′-dioxo-1′,4′,5′,11′-tetrahydro-3′H,4H,7′H-spiro[isoxazole-5,6′-[2,7]methanopyrido[1,2-a][1,4]diazonin]-12′-yl)oxy)methyl 3-methyl-3-(4-methyl-2-(2-morpholino-2-oxoethyl)-6-(phosphonooxy)phenyl)butanoate], the CC50 in series [1] is 29000 nM. In addition, the EC50 in series [2] (setting [4]) worked out at 5.78 nM. The compound further returned a solubility (thermodynamic) in series [3] of 4640 µg/mL (≈ 5.08 mM).

`CC1=NO[C@@]2(CC[C@H](C)N3C[C@H]2n2cc(C(=O)NCc4ccc(F)cc4F)c(=O)c(OCOC(=O)N(C)Cc4ccc(OP(=O)(O)O)cc4)c2C3=O)C1` [Compound 39, (((3′S,5S,7′R)-10′-((2,4-difluorobenzyl)carbamoyl)-3,3′-dimethyl-1′,11′-dioxo-1′,4′,5′,11′-tetrahydro-3′H,4H,7′H-spiro[isoxazole-5,6′-[2,7]methanopyrido[1,2-a][1,4]diazonin]-12′-yl)oxy)methyl methyl(4-(phosphonooxy)benzyl)carbamate]: in series [1], the CC50 is not below 50000 nM. Further, the EC50 in series [2] (setting [4]) was determined as 88.7 nM. The compound further displayed a thermodynamic solubility in series [3] of 4830 µg/mL (≈ 6.36 mM).

Take `CNCC(=O)OCc1cccnc1N(C)C(=O)OCOc1c2n(cc(C(=O)NCc3ccc(F)cc3F)c1=O)[C@@H]1CN(C2=O)[C@@H](C)CC[C@]12CC(C)=NO2` [Compound 9, (2-((((((3′S,5S,7′R)-10′-((2,4-difluorobenzyl)carbamoyl)-3,3′-dimethyl-1′11′-dioxo-1′,4′,5′,11′-tetrahydro-3′H,4H,7′H-spiro[isoxazole-5,6′-[2,7]methanopyrido[1,2-a][1,4]diazonin]-12′-yl)oxy)methoxy)carbonyl)(methyl)amino)pyridin-3-yl)methyl methylglycinate]: the CC50 at 5 days in series [1] came to 10500 nM. Moreover, the EC50 in series [2] (setting [5]) was 1.4 nM. The compound further gave a thermodynamic solubility at 24 h in series [3] of 3240 µg/mL (≈ 4.3 mM).

Turning to `CC1=NO[C@@]2(CC[C@H](C)N3C[C@H]2n2cc(C(=O)NCc4ccc(F)cc4F)c(=O)c(OCOC(=O)O[C@@H]4CCCC[C@H]4OP(=O)(O)O)c2C3=O)C1` [Compound 45, (((3′S,5S,7′R)-10′-((2,4-difluorobenzyl)carbamoyl)-3,3′-dimethyl-1′,11′-dioxo-1′,4′,5′,11′-tetrahydro-3′H,4H,7′H-spiro[isoxazole-5,6′-[2,7]methanopyrido[1,2-a][1,4]diazonin]-12′-yl)oxy)methyl ((1R,2R)-2-(phosphonooxy)cyclohexyl) carbonate], the CC50 at 5 days in series [1] was found to be 11400 nM. For the same compound, the EC50 in series [2] (setting [5]) was 1.73 nM. The compound also registered a thermodynamic solubility at 24 h in series [3] of 5320 µg/mL (≈ 7.21 mM).

In series [1], `CC1=NO[C@@]2(CC[C@H](C)N3C[C@H]2n2cc(C(=O)NCc4ccc(F)cc4F)c(=O)c(OCOC(=O)O[C@H]4CCC[C@@H]4OP(=O)(O)O)c2C3=O)C1` [Compound 46, (((3′S,5S,7′R)-10′-((2,4-difluorobenzyl)carbamoyl)-3,3′-dimethyl-1′,11′-dioxo-1′,4′,5′,11′-tetrahydro-3′H,4H,7′H-spiro[isoxazole-5,6′-[2,7]methanopyrido[1,2-a][1,4]diazonin]-12′-yl)oxy)methyl ((1S,2S)-2-(phosphonooxy)cyclopentyl) carbonate] registered a CC50 at 5 days of 15100 nM. The EC50 in series [2] (setting [5]) is 2.51 nM. Also, in series [3], the solubility (thermodynamic) at 24 h worked out at 4850 µg/mL (≈ 6.69 mM).

In series [1], `COC1=NO[C@@]2(CC[C@H](C)N3C[C@H]2n2cc(C(=O)NCc4ccc(F)cc4F)c(=O)c(OCOC(=O)N(C)c4ncccc4COP(=O)(O)O)c2C3=O)C1` [Compound 3, (((3′S,5S,7′R)-10′-((2,4-difluorobenzyl)carbamoyl)-3-methoxy-3′-methyl-1′,11′-dioxo-1′,4′,5′,11′-tetrahydro-3′H,4H,7′H-spiro[isoxazole-5,6′-[2,7]methanopyrido[1,2-a][1,4]diazonin]-12′-yl)oxy)methylmethyl(3-((phosphonooxy)methyl)pyridin-2-yl)carbamate] yielded a CC50 at 5 days of 12600 nM. Besides, the EC50 in series [2] (setting [5]) came out at 2.15 nM. Besides, the thermodynamic solubility at 24 h in series [3] is 5410 µg/mL (≈ 6.97 mM).

Compound `CCCCCCCCCCCCCC(=O)OCc1ccccc1C(=O)Oc1c2n(cc(C(=O)NCc3ccc(F)cc3F)c1=O)[C@@H]1CN(C2=O)[C@@H](C)CC[C@]12CC(OC)=NO2` [Compound 91, (3′S,5S,7′R)-10′-((2,4-difluorobenzyl)carbamoyl)-3-methoxy-3′-methyl-1′,11′-dioxo-1′,4′,5′,11′-tetrahydro-3′H,4H,7′H-spiro[isoxazole-5,6′-[2,7]methanopyrido[1,2-a][1,4]diazonin]-12′-yl 2-((tetradecanoyloxy)methyl)benzoate] displayed a CC50 at 5 days in series [1] not below 50000 nM. In addition, in series [2] (setting [5]), the EC50 turned out to be 5.07 nM.

In series [1], `COC1=NO[C@@]2(CC[C@H](C)N3C[C@H]2n2cc(C(=O)NCc4ccc(F)cc4F)c(=O)c(OCc4oc(=O)oc4C)c2C3=O)C1` [Compound 103, (3′S,5S,7′R)—N-(2,4-difluorobenzyl)-3-methoxy-3′-methyl-12′-((5-methyl-2-oxo-1,3-dioxol-4-yl)methoxy)-1′,11′-dioxo-1′,4′,5′,11′-tetrahydro-3′H,4H,7′H-spiro[isoxazole-5,6′-[2,7]methanopyrido[1,2-a][1,4]diazonine]-10′-carboxamide] gave a CC50 at 5 days of 18900 nM. For the same compound, the EC50 in series [2] (setting [5]) is 1.91 nM.

As to `CC1=NO[C@@]2(CC[C@H](C)N3C[C@H]2n2cc(C(=O)NCc4ccc(F)cc4F)c(=O)c(OCOC(=O)OC[C@@H]4CCCC[C@@H]4OP(=O)(O)O)c2C3=O)C1` [Compound 52, (((3′S,5S,7′R)-10′-((2,4-difluorobenzyl)carbamoyl)-3,3′-dimethyl-1′,11′-dioxo-1′,4′,5′,11′-tetrahydro-3′H,4H,7′H-spiro[isoxazole-5,6′-[2,7]methanopyrido[1,2-a][1,4]diazonin]-12′-yl)oxy)methyl (((1S,2S)-2-(phosphonooxy)cyclohexyl)methyl) carbonate], the CC50 at 5 days in series [1] is 13000 nM. In series [2] (setting [5]), the EC50 turned out to be 1.47 nM.

In series [1], `CC1=NO[C@@]2(CC[C@H](C)N3C[C@H]2n2cc(C(=O)NCc4ccc(F)cc4F)c(=O)c(OCOC(=O)CC(C)(C)c4c(CC(=O)NCP(=O)(O)O)cc(C)cc4OP(=O)(O)O)c2C3=O)C1` [Compound 81, ((2-(2-(4-((((3′S,5S,7′R)-10′-((2,4-difluorobenzyl)carbamoyl)-3,3′-dimethyl-1′,11′-dioxo-1′,4′,5′,11′-tetrahydro-3′H,4H,7′H-spiro[isoxazole-5,6′-[2,7]methanopyrido[1,2-al][1,4]diazonin]-12′-yl)oxy)methoxy)-2-methyl-4-oxobutan-2-yl)-5-methyl-3-(phosphonooxy)phenyl)acetamido)methyl)phosphonic acid] returned a CC50 of 14400 nM. In series [2] (setting [4]), the concentration giving a half-maximal response (EC50) was determined as 2.09 nM.

Compound `COCCN(Cc1cccnc1N(C)C(=O)Oc1c2n(cc(C(=O)NCc3ccc(F)cc3F)c1=O)[C@@H]1CN(C2=O)[C@@H](C)CC[C@]12CC(C)=NO2)C(=O)OCOP(=O)(O)O` [Compound 83, (3′S,5S,7′R)-10′-((2,4-difluorobenzyl)carbamoyl)-3,3′-dimethyl-1′,11′-dioxo-1′,4′,5′,11′-tetrahydro-3′H,4H,7′H-spiro[isoxazole-5,6′-[2,7]methanopyrido[1,2-a][1,4]diazonin]-12′-yl (3-(((2-methoxyethyl)(((phosphonooxy)methoxy)carbonyl)amino)methyl)pyridin-2-yl)(methyl)carbamate] gave a CC50 in series [1] of 13200 nM. Further, the concentration giving a half-maximal response (EC50) in series [2] (setting [4]) amounted to 1.36 nM.

In series [3], `CC1=NO[C@@]2(CC[C@H](C)N3C[C@H]2n2cc(C(=O)NCc4ccc(F)cc4F)c(=O)c(OC(=O)OCc4ccccc4OP(=O)(O)O)c2C3=O)C1` [Compound 32, (3′S,5S,7′R)-10′-((2,4-difluorobenzyl)carbamoyl)-3,3′-dimethyl-1′,11′-dioxo-1′,4′,5′,11′-tetrahydro-3′H,4H,7′H-spiro[isoxazole-5,6′-[2,7]methanopyrido[1,2-a][1,4]diazonin]-12′-yl (2-(phosphonooxy)benzyl) carbonate] showed a solubility (thermodynamic) of 1330 µg/mL (≈ 1.86 mM).

`CC1=NO[C@@]2(CC[C@H](C)N3C[C@H]2n2cc(C(=O)NCc4ccc(F)cc4F)c(=O)c(OC(=O)N(C)c4ncccc4CN(CCC(F)(F)F)C(=O)OCOP(=O)(O)O)c2C3=O)C1` [Compound 82, (3′S,5S,7′R)-10′-((2,4-difluorobenzyl)carbamoyl)-3,3′-dimethyl-1′,11′-dioxo-1′,4′,5′,11′-tetrahydro-3′H,4H,7′H-spiro[isoxazole-5,6′-[2,7]methanopyrido[1,2-a][1,4]diazonin]-12′-yl methyl(3-(((((phosphonooxy)methoxy)carbonyl)(3,3,3-trifluoropropyl)amino)methyl)pyridin-2-yl)carbamate] registered a CC50 in series [1] of 8520 nM. Moreover, the EC50 in series [2] (setting [4]) came out at 2.17 nM.

`CC1=NO[C@@]2(CC[C@H](C)N3C[C@H]2n2cc(C(=O)NCc4ccc(F)cc4F)c(=O)c(OCOC(=O)O[C@H]4CCCCC[C@@H]4OP(=O)(O)O)c2C3=O)C1` [Compound 77, (((3′S,5S,7′R)-10′-((2,4-difluorobenzyl)carbamoyl)-3,3′-dimethyl-1′,11′-dioxo-1′,4′,5′,11′-tetrahydro-3′H,4H,7′H-spiro[isoxazole-5,6′-[2,7]methanopyrido[1,2-a][1,4]diazonin]-12′-yl)oxy)methyl ((1S,2S)-2-(phosphonooxy)cycloheptyl) carbonate]: in series [1], the CC50 at 5 days worked out at 19400 nM. For the same compound, the EC50 in series [2] (setting [5]) worked out at 2.05 nM.
